Source: patent publication US20040157793A1, “Modified nucleosides as antiviral agents” (priority 2002, published 2004)
Like-named read-outs stand apart in the source and are kept apart here.

How the values were obtained:
[1] = system: HBV (wild-type virus: rtM204) in HepAD38 cells; test: Suppression of HBV production in HepAD38 cells, viral DNA in supernatant by Q-PCR; format: cell-based; conditions: HepAD38 cells, 5-day incubation; for HepAD38 log10 inhibition at 10 μM: HBV DNA in supernatant; for EC90: concentration reducing viral load by 90%, unit printed in text only, read-out: HepAD38 EC90
From the text: The HepAD38 (wild-type virus: rtM204) and HepAD79 (3TC-resistant virus: rtV204) (Stuyver L. J. et al. 2001, Hepatol., 33:751-757) cell lines replicate HBV under conditions that can be regulated with tetracycline (King R. W. et al. 2000, Methods in Molecular Medicine, Vol 24: Antiviral Methods and Protocols, 43-50 (eds: D. Kinchington & R. F. Schinazi), Humana Press Inc, Totowa, N.J.); Ladner, et al. 1997, Antimicrob. Agents Chemother., 41:1715-1720; Ladner S. K., et al. 1998a. Antivir. Chem. Chemother., 9:65-72; Ladner S. K., et al. 1998b. Antimicrob. Agents Chemother., 42:2128-31). In the presence of this drug, the cell supernatant is virtually free of viral DNA, but upon the removal of tetracycline from the culture medium, these cells secrete virus-like particle into the supernatant.
(§1) HepAD38 and HepAD79 cells were seeded at 5×10^4 cells/well in a 96-well plate in seeding medium (DMEM/F12+10% FBS, 50 μg/ml penicillin, 50 μg/ml streptomycin, 100 μg/ml kanamycin, 400 μg/ml G418, and 0.3 μg/ml tetracycline) and incubated for 2 days at 37° C. in a 5% CO2, humidified atmosphere. The seeding media was removed, and cells were washed 3 times with PBS. Cells were then incubated with 200 μL assay medium (DMEM/F12+10% FBS+P/S/K) containing either (i) no compound, (ii) test compound, or (iii) control drugs at 10 μM. After an additional 5-day (HepAD38) or 13-day incubation (HepAD79, with renewal of the culture media at day 7), the cell supernatant was collected and stored at −70° C. until HBV DNA was quantified.
HBV DNA was extracted from supernatant using QiaAmp DNA blood Mini kit (Qiagen) and nucleic acids eluted in 200 μl Viral DNA was detected by quantitative PCR (Q-PCR). The TaqMan probe and primers were designed using the Primer Express software (Applied Biosystems) and cover highly conserved sequences complementary to the DNA sequences present in HBsAg. A total of 5 μl DNA was amplified using reagents and conditions as described by the manufacturer (Applied Biosystems). […]

[2] = system: HepG2 cells (mitochondrial COXII DNA); conditions: for effect on mitochondrial DNA levels (in words): HepG2, up to 100 μM
HepG2 cells [3] = test: Cell growth of HepG2 cells during 14-day treatment; format: cell-based, human; conditions: HepG2, up to 100 μM, 14 days
Procedure: (§2) In addition, these compounds were also tested in the HepG2 cell line (14-day treatment, 100 μM) for their ability to reduce mitochondrial DNA levels (using a newly designed normalized Q-PCR protocol as described in Stuyver, L. J., et al. 2002, Antimicrob. Agents Chemother., 46:3854-3860) or lactic acid production.

HepG2 cells [4] = test: Lactic acid production in HepG2 cells; format: cell-based, human; conditions: HepG2, up to 100 μM, 14 days
Procedure: as §2

[5] = system: HBV (3TC-resistant virus: rtV204) in HepAD79 cells; test: microbe, parasite or virus in culture; format: cell-based; conditions: for HepAD79 log10 inhibition at 10 μM / EC90: HepAD79 cells, 13-day incubation; for HepAD79 log10 inhibition at 10 μM: HBV DNA in supernatant; for EC90: read-out: HepAD79 EC90; for FI EC90 AD79/EC90 AD38: fold increase, EC90 HepAD79 over EC90 HepAD38
Procedure: as §1
HBV DNA was extracted from supernatant using QiaAmp DNA blood Mini kit (Qiagen) and nucleic acids eluted in 200 μl Viral DNA was detected by quantitative PCR (Q-PCR). The TaqMan probe and primers were designed using the Primer Express software (Applied Biosystems) and cover highly conserved sequences complementary to the DNA sequences present in HBsAg. A total of 5 μl DNA was amplified using reagents and conditions as described by the manufacturer (Applied Biosystems).
Subsequently, the time course of viral induction in HepAD79 cells over a 13-day incubation period was investigated.
Therefore, the DNA extracted from the cell supernatant was also amplified by Q-PCR for the presence of cellular DNA (the rRNA gene).

[6] = HepG2, 14-day treatment, 100 μM

| SMILES | HepAD38 log10 inhibition at 10 μM [1] [log10] | EC90 [1] [nM] | Average ΔCt ± s.d. MitCoxII ([2]; HepG2, 14-day treatment, 1 μM) | Average ΔCt ± s.d. rDNA ([2]; HepG2, 14-day treatment, 1 μM) | Average ΔΔCt ± s.d. MitCOXII-rDNA ([2]; HepG2, 14-day treatment, 1 μM) | Fold difference in COXII DNA levels normalized for rDNA (range) relative to control ([2]; HepG2, 14-day treatment, 1 μM) | Average ΔCt ± s.d. MitCoxII ([2]; HepG2, 14-day treatment, 10 μM) | Average ΔCt ± s.d. rDNA ([2]; HepG2, 14-day treatment, 10 μM) | Average ΔΔCt ± s.d. MitCOXII-rDNA ([2]; HepG2, 14-day treatment, 10 μM) | Fold difference in COXII DNA levels normalized for rDNA (range) relative to control ([2]; HepG2, 14-day treatment, 10 μM) | Average ΔCt ± s.d. MitCoxII [2, 6] | Average ΔCt ± s.d. rDNA [2, 6] | Average ΔΔCt ± s.d. MitCOXII-rDNA [2, 6] | Fold difference in COXII DNA levels normalized for rDNA (range) relative to control [2, 6] | effect on mitochondrial DNA levels (in words) ([2]; 14 days) | effect on cell growth (in words) (HepG2 cells [3]) | total lactic acid production (in words) (HepG2 cells [4]) | HepAD79 log10 inhibition at 10 μM [5] [log10] | EC90 [5] [nM] | FI EC90 AD79/EC90 AD38 [5] | also measured |
| --- | --- | --- | --- | --- | --- | --- | --- | --- | --- | --- | --- | --- | --- | --- | --- | --- | --- | --- | --- | --- | --- |
| Nc1ccn([C@@H]2C=C(F)[C@H](CO)O2)c(=O)n1 [L-3′F-D4C, β-L-3′-fluoro-2′,3′--didehydro-2′, 3′--dideoxycytadine] | 2.68 ± 0.44 | 220 ± 150 | 0.13 ± 0.16 | 0.08 ± 0.25 | 0.05 ± 0.26 | 0.96 (1.16-0.80) | 0.39 ± 0.15 | −0.11 ± 0.38 | 0.49 ± 0.51 | 0.71 (1.02-0.50) | 0.20 ± 0.20 | −0.28 ± 0.14 | 0.48 ± 0.13 | 0.72 (0.79-0.65) | no reductions in mitochondrial DNA levels | did not show any reduction in cell growth | no increase in total lactic acid production | 1.65 ± 0.24 | 2300 | 10.5 | EC90 ([1]; listed as L-3F-D4C): 250 nM |
| Nc1nc(=O)n([C@@H]2C=C(F)[C@H](CO)O2)cc1F [L-3′F-D4FC, β-L-3′-fluoro-2′,3′-didehydro-2′,3′-dideoxy-5-fluorocytidine] | 2.8 ± 0.09 | 220 ± 140 | 0.00 ± 0.13 | −0.46 ± 0.06 | 0.35 ± 0.01 | 0.78 (0.79-0.78) | 0.23 ± 0.13 | −0.10 ± 0.06 | 0.33 ± 0.10 | 0.80 (0.85-0.74) | −0.52 ± 0.28 | −0.94 ± 0.16 | 0.42 ± 0.13 | 0.75 (0.82-0.68) | no reductions in mitochondrial DNA levels | did not show any reduction in cell growth | no increase in total lactic acid production | 1.56 ± 0.40 | 3100 | 14.1 | EC90 ([1]; listed as L-3F-D4FC): 250 nM |
| Nc1nc(=O)n([C@@H]2CC[C@H](CO)O2)cc1F [L-FddC] | 2.03 | 310 |  |  |  |  |  |  |  |  |  |  |  |  |  |  |  | 0.02 | > 10000 |  |  |
| Nc1ccn([C@@H]2C=C[C@H](CO)O2)c(=O)n1 [L-d4C] | 2.79 ± 0.08 | 60 ± 20 |  |  |  |  | 2.72 ± 0.37 | 3.96 ± 0.87 | −1.24 ± 0.50 | 2.36 (1.67-3.35) | 6.82 ± 0.33 | 10.14 ± 0.77 | −3.32 ± 0.75 | 9.99 (5.92-16.85) | did not specifically affect the mitochondrial DNA levels | reduced the cell growth significantly |  | 1.54 ± 0.38 | 960 | 16 |  |
| Nc1ccn([C@H]2CC[C@@H](CO)O2)c(=O)n1 [ddC, 2′,3′-dideoxycytidine] |  |  |  |  |  |  | 7.70 ± 0.08 | 0.92 ± 0.52 |  |  |  |  |  |  |  |  |  |  |  |  | Average ΔΔCt ± s.d. MitCOXII-rDNA ([2]; human, 14 days, 10 μM): 6.78 ± 0.56; Fold difference in COXII DNA levels normalized for rDNA (range) relative to control ([2]; human, 14 days, 10 μM): 0.01 (0.01-0.01) |
